Data from publication PMC7059070, “Synthesis and in-vitro Evaluation of S-allyl Cysteine Ester - Caffeic Acid Amide Hybrids as Potential Anticancer Agents” (Iranian Journal of Pharmaceutical Research : IJPR, 2019).
Like-named read-outs stand apart in the source and are kept apart here.

Assays:
[1] = system: SW480 human colon adenocarcinoma cells; assay: Cell viability, sulforhodamine B (SRB) assay, SW480 cells; format: cell-based; details: for IC50: Homo sapiens, SW480 cells, SRB; for SI (selectivity index), 24 h: ratio of IC50 against CHO-K1 to IC50 against SW480, 24 h; for SI (selectivity index), 48 h: ratio of IC50 against CHO-K1 to IC50 against SW480, 48 h
Experimental: (§1) Biological assays were performed using an adenocarcinoma colon cancer cell line (SW480) and non-malignant cells (CHO-K1). These were obtained from the European Collection of Authenticated Cell Cultures (ECACC, England) and maintained in Dulbecco’s Modified Eagle Medium, supplemented with 10% heat-inactivated (56 °C) horse serum, 1% penicillin/streptomycin and 1% non-essential amino acids (Gibco Invitrogen, Carlsbad, USA). For all experiments, horse serum was reduced to 3%, and the medium was supplemented with […] transferrin, 5 ng/mL selenium and […] insulin (ITS-defined medium; Gibco, Invitrogen, Carlsbad, USA) ([32]).
(§2) The cell viability of the synthesized hybrids, lead, and reference compounds was evaluated through Sulforhodamine B (SRB) assay, a colorimetric test that is based on staining of total cellular protein of adherent cells. The cells were seeded to a ﬁnal density of 20.000 cells/well in 96-well tissue culture plates and incubated at 37 °C in a humidified atmosphere at 5% CO2. […] After treatment, the cells were fixed with trichloroacetic acid (50% v/v) (MERCK) for a period of one h at 4 °C. The cell proteins were determined by staining with 0.4% (w/v) SRB (Sigma-Aldrich, United States), then they were washed with 1% acetic acid for the removal of unbound SRB and left for air-drying. Protein bound SRB was solubilized in 10 mM Tris-base and the absorbance was measured at 492 nm in a microplate reader (Mindray MR-96A) ([33]). All of the experiments were performed at least in quintuplicate.

[2] = system: non-malignant CHO-K1 cell line; assay: Cell viability, sulforhodamine B (SRB) assay, CHO-K1 cells; format: cell-based; details: Cricetulus griseus
Experimental: as §1, §2

SW480 cells [3] = assay: Mitochondrial membrane potential (ΔΨm), DiOC6/PI flow cytometry; format: cell-based, human; details: SW480, treated at IC50, 48 h; for Mitochondrial membrane depolarization in words: vs control; for PI+ cells: cells in process of death; for DiOC6 low cells: cells that lose membrane polarization; for DiOC6 high cells: live cells with high membrane polarization
Experimental: Mitochondrial membrane permeability changes were assessed through the fluorescent dye DiOC6 (3,3’-dihexyloxacarbocyanine iodide, Thermo Fisher Scientiﬁc, Waltham, MA, USA), and propidium iodide (PI). The cells were seeded to a ﬁnal density of 2.5 x 10^5 cells/well in 6-well tissue culture plates and were allowed to grow for 24 h. […] The cells were collected to analyze 10,000 events by ﬂow cytometry with excitation at 488 nm and detection of the emission with the green (530/15 nm) and the red (610/20 nm) ﬁlters. This method allowed us quantifying cells with depolarized mitochondrial membrane ([34]).

SW480 cells [4] = assay: Cell cycle analysis, propidium iodide flow cytometry; format: cell-based, human; details: SW480, treated at IC50, 48 h
Experimental: Cell cycle distribution was analyzed by labelling cells with propidium iodide (PI). Assays were carried out as described by Nicoletti et al. (1991). In brief, cells were seeded in 6-well tissue culture plates at a density of 2.5 x 10^5 cells/well, incubated at 37 °C in a 5% CO2 atmosphere. […] After the treatment, the cells were collected by scraping and the centrifuged cell pellet was resuspended with phosphate buffered saline (PBS). The cell suspension was fixed in 1.8 mL 70% ethanol at 4°C overnight, afterward, these were centrifuged, washed twice in PBS and resuspended in 300 µL of PBS containing 0.25 mg/mL RNAse (Type I-A, Sigma-Aldrich, Germany) and 0.1 mg/mL PI. Following the incubation in the dark at room temperature for 30 min, the PI ﬂuorescence of 10,000 cells was analyzed using a FACS Canto II ﬂow cytometer and the software BD FACS Diva 6.1.3. (BD Biosciences, San Jose). PI signal was analyzed with excitation at 488 nm, using a Sapphire laser, and fluorescence was detected at 610nm. The cell clumps were excluded with the PI-Area vs PI-Width signals. The cell cycle model was ﬁxed using the software FlowJo 7.6.2 (Ashland, OR, USA), applying the Dean-Jett-Fox model ([34], [35]).

SW480 cells [5] = assay: Antiproliferative activity, SRB assay over 0-8 days; format: cell-based, human; details: 0.1-0.55 mM, p ≤ 0.05 vs control
Experimental: Briefly, the cells were seeded to a ﬁnal density of 2500 cells/well in 96-well tissue culture plates and incubated in the same conditions described for viability. […] Culture media was replaced every 48 h. After each incubation time, the cells were fixed, stained, and read as previously described for this technique ([32]).

[6] = 24 h treatment, read-out: IC50 (mM) SW480 cells, 24 h
[7] = 48 h treatment, read-out: IC50 (mM) SW480 cells, 48 h
[8] = 24 h treatment, read-out: IC50 (mM) CHO-K1 cells, 24 h
[9] = 48 h treatment, read-out: IC50 (mM) CHO-K1 cells, 48 h

Compound | IC50 [1, 6] | IC50 [1, 7] | SI (selectivity index), 24 h [1] | melting point | IC50 [2, 8] | IC50 [2, 9] | SI (selectivity index), 48 h [1] | Cytotoxic activity in words ([1]; at 24 h and 48 h after treatment) | Mitochondrial membrane depolarization in words (SW480 cells [3]) | PI+ cells (SW480 cells [3]) | DiOC6 low cells (SW480 cells [3]) | DiOC6 high cells (SW480 cells [3]) | Cells in G2/M phase (SW480 cells [4]) | Effect on cell cycle in words (SW480 cells [4]) | Cells in G0/G1 phase (SW480 cells [4]) | Cells in S phase (SW480 cells [4]) | Day from which significant antiproliferative activity was displayed (SW480 cells [5])
C=CCSC[C@H](N)C(=O)OC [3a, S-Allylcysteine methyl ester] | > 10 mM | > 10 mM | <0.19 | 114 to 116 °C | 1.85 mM | > 10 mM |  |  |  |  |  |  |  |  |  |  | 
C=CCSC[C@H](N)C(=O)OCCC [3c, Propyl S-prop-2-en-1-ylcysteinate] | > 10 mM | 1.28 mM | <0.15 | 115 to 117 °C | 1.5 mM | 1.24 mM | 0.97 |  |  |  |  |  |  |  |  |  | 
O=c1[nH]cc(F)c(=O)[nH]1 [5-Fluorouracil, 5-fluorouracil, reference compound] | 0.062 mM | 0.035 mM |  |  | 0.091 mM | 0.048 mM | 1.34 |  |  |  |  |  |  |  |  |  | 
C=CCSC[C@H](NC(=O)/C=C/c1ccc(OC(C)=O)c(OC(C)=O)c1)C(=O)OC [6a, Methyl N-{(2E)-3-[3,4-bis(acetyloxy)phenyl]prop-2-enoyl}-S-prop-2-en-1-ylcysteinate] | 0.67 mM | > 10 mM |  |  | 2.77 mM | 7.83 mM |  |  |  |  |  |  |  |  |  |  | 
C=CCSC[C@H](NC(=O)/C=C/c1ccc(OC(C)=O)c(OC(C)=O)c1)C(=O)OCC [6b, Ethyl N-{(2E)-3-[3,4-bis(acetyloxy)phenyl]prop-2-enoyl}-S-prop-2-en-1-ylcysteinate] | > 10 mM | > 10 mM |  |  | 3.84 mM | > 10 mM |  | did not exhibit activity |  |  |  |  |  |  |  |  | 
C=CCSC[C@H](NC(=O)/C=C/c1ccc(OC(C)=O)c(OC(C)=O)c1)C(=O)OCCC [6c, Propyl N-{(2E)-3-[3,4-bis(acetyloxy)phenyl]prop-2-enoyl}-S-prop-2-en-1-ylcysteinate] | 1.02 mM | > 10 mM | 0.26 | 80 to 82 °C | 0.27 mM | 1.25 mM | <0.13 |  |  |  |  |  |  |  |  |  | 
C=CCSC[C@H](NC(=O)/C=C/c1ccc(OC(C)=O)c(OC(C)=O)c1)C(=O)OCCCC [6d, Butyl N-{(2E)-3-[3,4-bis(acetyloxy)phenyl]prop-2-enoyl}-S-prop-2-en-1-ylcysteinate] | 2.79 mM | > 10 mM |  |  | 0.21 mM | 9.97 mM |  |  |  |  |  |  |  |  |  |  | 
C=CCSC[C@H](NC(=O)/C=C/c1ccc(O)c(O)c1)C(=O)OC [9a, Methyl N-[(2E)-3-(3,4-dihydroxyphenyl)-2-propenoyl]-S-2-propen-1-yl-L-cysteinate] | 0.24 mM | 0.12 mM | 2.0 | 101 to 103 °C | 0.47 mM | 0.18 mM | 1.5 |  | highest activity | 8,16% | 62,9% | 29,4% | 18.8% | cell cycle arrest in G2/M phase |  |  | 
C=CCSC[C@H](NC(=O)/C=C/c1ccc(O)c(O)c1)C(=O)OCC [9b, Ethyl N-[(2E)-3-(3,4-dihydroxyphenyl)-2-propenoyl]-S-2-propen-1-yl-L-cysteinate] | 0.93 mM | 0.12 mM |  |  | > 10 mM | > 10 mM |  |  |  | 21,9% | 36,5% | 42,0% |  | did not have any impact on the cell cycle |  |  | 
C=CCSC[C@H](NC(=O)/C=C/c1ccc(O)c(O)c1)C(=O)OCCC [9c, Propyl N-[(2E)-3-(3,4-dihydroxyphenyl)-2-propenoyl]-S-2-propen-1-yl-L-cysteinate] | 0.1 mM | 0.11 mM |  |  | 0.12 mM | > 10 mM |  |  |  | 9,13% | 45,0% | 44,5% |  | S- phase | 67.3% | 23% | 
C=CCSC[C@H](NC(=O)/C=C/c1ccc(O)c(O)c1)C(=O)OCCCC [9d, Butyl N-[(2E)-3-(3,4-dihydroxyphenyl)-2-propenoyl]-S-2-propen-1-yl-L-cysteinate] | 0.11 mM | 0.15 mM | >90.91 | 119 to 121 °C | > 10 mM | > 10 mM | >66.67 |  |  |  |  |  |  |  |  |  | 4 days
C=CCSC[C@H](NC(=O)/C=C/c1ccc(O)c(O)c1)C(=O)OCCCCC [9e, Pentyl N-[(2E)-3-(3,4-dihydroxyphenyl)-2-propenoyl]-S-2-propen-1-yl-L-cysteinate] | 0.2 mM | 0.12 mM |  |  | 0.21 mM | > 10 mM |  |  | highest activity | 8,32% | 59,9% | 32,5% | 22.3% | cell cycle arrest in G2/M phase |  |  | 2 days
O=C(O)/C=C/c1ccc(O)c(O)c1 [Caffeic acid] | 7.06 mM | 3.47 mM | >1.42 |  | > 10 mM | > 10 mM | >2.88 |  |  |  |  |  |  |  |  |  | 
C=CCSC[C@H](N)C(=O)O [S-Allylcysteine, reference compound] | > 10 mM | 0.38 mM | >1.0 |  | > 10 mM | > 10 mM | >26.32 |  |  |  |  |  |  |  |  |  | 
